From publication PMC5996347, “2-Mercapto-Quinazolinones as Inhibitors of Type II NADH Dehydrogenase and Mycobacterium tuberculosis: Structure–Activity Relationships, Mechanism of Action and Absorption, Distribution, Metabolism, and Excretion Characterization” (ACS Infectious Diseases, 2018) come the findings set out here.

Common to all, as to assay type: cell-based, Mycobacterium tuberculosis
The test system of one assay is ΔndhA mutant.
The subject of the next assay is nuoG deletion mutant. As to conditions: results not shown.
Assay [1] deals with anaerobic nonreplicating MTb cells. Briefly: Anaerobic cidal activity on nonreplicating cells.

Entries after “also recorded” stand apart in the source; their conditions may differ.

`O=C(CSc1nc2ccccc2c(=O)[nH]1)NC1CCCCC1` [Compound 1, N-Cyclohexyl-2-((4-oxo-3,4-dihydroquinazolin-2-yl)thio)acetamide]: in the assay on ΔndhA mutant, the “Kill of ΔndhA mutant” value is recorded as roughly 2 log. In addition, the “MIC to nuoG deletion mutant compared with WT” value with nuoG deletion mutant is listed as “indistinguishable from WT cells”. The “Anaerobic cidal activity / viability of anaerobic nonreplicating cells” value in assay [1] is on record as “Lack of anaerobic cidal activity; also recorded: did not affect viability”.
